Assays:
[1] = system: resting S. clavuligerus NP1 cells; test: Penicillin G ring expansion by resting cells grown on alcohol (Example 3); type: cell-based; conditions: 3 hours of reaction, 5.6 mM penicillin G; for Cephalosporin Production Specific: per mg DCW
Protocol: Microorganisms, Media, and Culture Conditions: All experiments were done using S. clavuligerus NP1. Seed cultures were developed using 250 ml baffled flasks containing 40 ml of MST medium: 1% soluble starch (Sigma Chemical Co., St. Louis, Mo.); 3% Trypticase Soy Broth Without Dextrose (BBL, Cockeysville, Md.); 90 mM MOPS buffer, pH adjusted to 7.0 before autoclaving. Each flask was inoculated with 50 μl of a spore suspension (stored in 20% glycerol at −80° C.) and incubated at 30° C., 250 rpm for 48 h.
From a seed culture, 4 ml were transferred to 500 ml baffled flasks containing 80 ml of MT medium (3% Trypticase Soy Broth Without Dextrose; 90 mM MOPS buffer, pH adjusted to 7.0 before autoclaving) with or without 1-2% ethanol or methanol. Alcohols were added just before inoculation. Cells were grown at 30° C., 250 rpm for 24 h. Mycelia from each flask were washed twice and, finally, resuspended in 10 ml of distilled water. Four ml of this cell suspension were used in the ring-expanding biotransformation.
Ring Expansion: The ring expansion mixture contained 1.8 mM FeSO4, 1.28 mM α-ketoglutarate, 4 ml cell suspension, 5.6 mM penicillin G and 50 mM MOPS (pH 6.5) in a final volume of 10 ml contained in 250 ml baffled Erlenmeyer flasks. Additions were made in the order established by Shen et al. (Shen et al., Enzyme Microb. Technol. 17:231-234, 1984). Incubation was at 220 rpm and 30° C. for 1 to 3 h. Samples were collected and centrifuged. Biotransformation activity was detected by paper disc-agar diffusion bioassay.
Detection of Expandase Activity: Expandase activity was detected by paper disc-agar diffusion bioassay. Two superimposed paper discs (¼ inch; Schleicher & Schuell, Keene, N.H.) were saturated with 100 μl of each supernatant or standard. After each application, the discs were allowed to dry for 30 min in a laminar hood and then placed on Petri plates containing 10 ml of LB (1% tryptone, 0.5% NaCl, 0.5% yeast extract, 0.1% glucose) 0.8% agar medium containing 50,000 IU/ml of penicillinase (Difco Bacto penase concentrate, Difco Laboratories, Detroit, Mich.) seeded with E. coli ESS (a β-lactam-supersensitive mutant). The plates were incubated overnight at 37° C. The penicillinase used is a narrow spectrum β-lactamase that destroys the substrate penicillin G but not cephalosporins. The diameters of zones of growth inhibition were measured and quantified with calibration curves using pure DAOG as standard.
Dry Cell Weight (DCW) Assay: Two samples of 1 ml were taken from each cell suspension prepared in distilled water (10 ml), centrifuged (14,000×g, 10 min) and dried to constant weight at 65° C. The weights listed are those in the reaction mixture.

[2] = target: T1, expandase from S. clavuligerus (Streptomyces clavuligerus, UniProt P18548); test: Ring expansion by cell-free extracts of S. lividans transformant pHJ11 (Example 7); type: biochemical; conditions: pHJ11 cell-free extract 6 mg/ml protein, substrate 5.6 mM, after 4 h of reaction
T1 construct: made in house; host or cells: S. lividans 1326 transformed with pHJ11, crude cell-free extract
T1 sequence (P18548 whole entry): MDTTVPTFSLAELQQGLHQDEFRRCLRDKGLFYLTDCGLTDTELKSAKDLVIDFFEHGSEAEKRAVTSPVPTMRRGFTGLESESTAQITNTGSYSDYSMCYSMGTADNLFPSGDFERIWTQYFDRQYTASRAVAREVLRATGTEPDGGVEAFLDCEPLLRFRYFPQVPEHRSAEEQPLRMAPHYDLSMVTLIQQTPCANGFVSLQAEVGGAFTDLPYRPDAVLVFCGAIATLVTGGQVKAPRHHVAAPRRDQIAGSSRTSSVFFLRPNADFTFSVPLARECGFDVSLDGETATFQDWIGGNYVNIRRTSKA
Protocol: Microorganism, Medium and Culture Conditions: S. lividans 1326 was used in all experiments. Cultures were grown in 250 ml baffled flasks containing 40 ml of MST medium. Each flask was inoculated with 50 μl of a spore suspension (prepared and stored at −80° C. in 20% glycerol) and incubated at 30° C., 250 rpm, for 48 h.
Plasmids: The plasmid pUL702-202a was a gift from J. F. Martin (University of León, Spain). This vector harboured a 4.3 Kb BglII fragment containing the epimerase and expandase genes from Nocardia lactamdurans inserted at the BglII site on pIJ702. The plasmid pHJ11 was constructed by cloning a 3 Kb BglII fragment containing the expandase gene from S. clavuligerus 3585 into pIJ702 at the BglII site.
Ring Expansion Reaction: The ring expansion mixture contained 1.8 mM FeSO4, 1.28 mM α-ketoglutarate, 6 mg/ml protein (cell-free extract), 8 mM KCl, 8 mM MgSO4, 14 mM DTT and 50 mM TrisHCl (pH 7.4) in a final volume of 2.5 ml. Substrate concentration was 5.6 mM. Additions were made following the order established by Shen et al. (Enzyme Microb. Technol. 6:402-404, 1984). Reaction mixtures were incubated in test tubes at 220 rpm, 30° C. At different times, 0.5 ml samples were taken and the reaction was stopped by adding 0.5 ml of methanol. […] Biotransformation activity was detected by paper disc-agar diffusion bioassay. […]

[3] = cells grown in MT + 1% E (ethanol)
[4] = cells grown in MT + 1% M (methanol)
[5] = cells grown in MT + 2% E (ethanol)
[6] = cells grown in MT + 2% M (methanol)

CC1(C)S[C@@H]2[C@H](NC(=O)Cc3ccccc3)C(=O)N2[C@H]1C(=O)O [Penicillin G, penicillin G]
Cephalosporin Production Volumetric [1, 3]: 12.3 µg/mL | Cephalosporin Production Specific [1, 3]: 3.6 µg/mg | Cephalosporin Production Volumetric [1, 4]: 5.2 µg/mL | Cephalosporin Production Specific [1, 4]: 1.7 µg/mg | Cephalosporin Production Volumetric [1, 5]: 6.3 µg/mL | Cephalosporin Production Specific [1, 5]: 7.0 µg/mg | Cephalosporin Production Volumetric [1, 6]: 4.3 µg/mL | Cephalosporin Production Specific [1, 6]: 1.5 µg/mg | Cephalosporin Production Volumetric ([1]; cells grown in MT): 5.3 µg/mL | Cephalosporin Production Specific ([1]; cells grown in MT): 1.5 µg/mg | production of cephalosporins [2]: about 7 μg/ml

Reference: US6383773B2, “Penicillin conversion” (Massachusetts Institute of Technology, priority 1998, dated 2002)
